Results from patent US5356880A, “Glycyrrhetinic acid derivatives” (priority 1991, dated 1994).
Like-named read-outs stand apart in the source and are kept apart here.

Experiments:
influenza viruses = details: in vivo; cited from earlier work
HSV-1 (Miyama strain) = experiment: In vitro antiviral action on cells infected with HSV-1 (Miyama strain), CPE inhibition, TCID50; format: cell-based, Herpes simplex virus type 1; details: Human alphaherpesvirus 1, GMK cells, read-out: Antiviral Activity (ΔTCID50)
HSV-1 (KOS strain) = experiment: microbe, parasite or virus in culture; format: cell-based, Herpes simplex virus type 1; details: Human alphaherpesvirus 1, Vero, read-out: Antiviral Activity (ΔTCID50)
HSV-2 (UW-268 strain) = experiment: microbe, parasite or virus in culture; format: cell-based, Herpes simplex virus type 2; details: Human alphaherpesvirus 2, Vero, read-out: Antiviral Activity (ΔTCID50)
[1] = system: vaccinia viruses (D1E strain); experiment: microbe, parasite or virus in culture; format: cell-based; details: Orthopoxvirus vaccinia, Vero, read-out: Antiviral Activity (ΔTCID50)
[2] = system: influenza viruses (A/PR/8 strain); experiment: microbe, parasite or virus in culture; format: cell-based, influenza virus A/PR/8; details: unidentified influenza virus, PR/8, MDCK, read-out: Antiviral Activity (ΔTCID50)
[3] = Acute toxicity testing, oral, mice (LD50, Litchfield-Willcoxon); details: mouse, in vivo, ICR male mice, 7 days observation
Source text: The compounds to be tested in the form of a 2% aqueous solution of Tween 80 were orally administrated to ICR male mice (weights: 24-30 g), five for each group.

N#CNc1nncs1 [LY253963]
effect on influenza viruses in animal tests (influenza viruses): resistant to influenza viruses in animal tests

COc1ccccc1N1CCN(C(=O)[C@@]2(C)CC[C@]3(C)CC[C@]4(C)C(=CC[C@@H]5[C@@]6(C)CC[C@H](O[C@H]7O[C@H](C(=O)O)[C@@H](O)[C@H](O)[C@H]7O[C@@H]7O[C@H](C(=O)O)[C@@H](O)[C@H](O)[C@H]7O)C(C)(C)[C@@H]6CC[C@]54C)[C@@H]3C2)CC1 [Comp. Ex. 37, 30-(N-2-(4-(2-methoxylphenyl)piperazine-1-yl)carbonyl)-18β-olean-12-en-3β-yl-2-O-β-D-glucuronyl-α-D-gluconic acid]
log reduction at 1 µg/mL (HSV-1 (Miyama strain); 1 μg/ml): 1.94 | log reduction at 5 µg/mL (HSV-1 (Miyama strain); 5 μg/ml): > 3.17 | log reduction at 25 µg/mL (HSV-1 (Miyama strain); 25 μg/ml): > 3.73 | log reduction at 1 µg/mL (HSV-1 (KOS strain)): 2.74 | log reduction at 5 µg/mL (HSV-1 (KOS strain)): 2.65 | log reduction at 25 µg/mL (HSV-1 (KOS strain)): > 3.25 | log reduction at 1 µg/mL (HSV-2 (UW-268 strain)): 1.87 | log reduction at 5 µg/mL (HSV-2 (UW-268 strain)): 3.01 | log reduction at 25 µg/mL (HSV-2 (UW-268 strain)): > 3.85 | log reduction at 1 µg/mL [1]: 1.49 | log reduction at 5 µg/mL [1]: 2.85 | log reduction at 25 µg/mL [1]: 2.61 | log reduction at 1 µg/mL [2]: 1.64 | log reduction at 5 µg/mL [2]: 1.7 | log reduction at 25 µg/mL [2]: 2.38 | LD50 at 168 h [3]: > 1000 mg/kg | magnitude of cytotoxicity (GMK cells; 1 μg/ml): - | magnitude of cytotoxicity (GMK cells; 5 μg/ml): - | magnitude of cytotoxicity (GMK cells; 25 μg/ml): - | magnitude of cytotoxicity (Vero cells): -
